{"source": "paper PMC8308784", "about": "“Novel Purine Chemotypes with Activity against Plasmodium falciparum and Trypanosoma cruzi” (Pharmaceuticals, 2021)", "key": {"[1]": {"tested_on": "T. cruzi intracellular amastigotes", "assay": "Antiamastigote growth inhibition assay", "type": "cell-based", "conditions": "intracellular amastigotes in Vero cells, mean (SD), read-out: T. cruzi IC50 b (antiamastigote assay)", "method": "Vero cells were seeded in T-175 flasks (5 × 10^6 cells per flask) in DMEM supplemented with 1% penicillin–streptomycin and 10% FBS, and cultured for 24 h. Then, cells were washed once with PBS, and free-swimming trypomastigotes (1 × 10^7 trypomastigotes per flask; MOI = 1) in assay medium were added and allowed 18 h to infect. After that, infected cell monolayers were washed with PBS and detached. Cells were counted and diluted to a concentration of 5 × 10^5 cells per mL, before adding 100 µL per well to test plates already containing the drugs dispensed as described above. In all cases, we included BNZ as control drug, and each plate contained its own negative (Vero cells and parasites) and positive (Vero cells) controls.\n(§1) Absorbance values derived from the anti-T. cruzi assays and fluorescence values from the anti-P. falciparum and cell toxicity assays were normalized to the controls. In the primary screening at three fixed doses, the compounds’ inhibitory activity was expressed as a percentage of the negative control (100% parasitic growth). In dose–response assays, the compounds’ IC50 and TC50 values were determined with GraphPad Prism 7 software (version 7.00, 2016), using a non-linear regression analysis model defined by the following equation: Y=100 ÷(1+10^((LogIC50−X)×HillSlope))"}, "P. falciparum 3D7 [2]": {"tested_on": "P. falciparum 3D7", "assay": "P. falciparum primary screening at three fixed concentrations", "type": "cell-based", "conditions": "average of at least three experiments", "method": "(§2) Apicomplexan parasite cultures were maintained at 3% hematocrit under an atmosphere of 37 °C in 93% N2, 5% CO2, and 2% O2, following standard methods. Synchronized cultures were obtained via 5% sorbitol lysis.\n[…] Conditions were tested in triplicate for every concentration, and the test was repeated when the standard deviation was above 10% for any concentration. Z-values varied between 0.83 and 0.98 in the different plates analyzed. Selected compounds (12.3% potential hit rate) were further analyzed via standard growth inhibition assays, carried out as previously described in [54]. Briefly, parasitemia was adjusted to 1–1.3%, with >90% rings after sorbitol synchronization. Two hundred microliters of parasite culture were plated in 96-well microplates and incubated for 48 h at 37 °C in the presence of decreasing concentrations of the tested compounds, in triplicate. Parasitemia was determined by fluorescence-assisted cell sorting (FACS). Non-infected RBCs and samples containing parasitized RBCs (including controls with DMSO as carrier solvent) were diluted in PBS to a final concentration of ~1–10 × 10^6 cells/mL. The cell suspension was stained with SYTO 11 (0.5 mM stock in DMSO, Thermo Fisher Scientific, Waltham, MA, USA), to a final concentration of 0.5 μM. Samples were analyzed in a Becton Dickinson FACSCalibur. Sample excitation was carried out using a 488-nm, air-cooled argon-ion laser at a power of 15 mW, using forward and side scatter to gate the RBC population, and SYTO 11 green fluorescence (530 nm, FITC filter) was collected in a logarithmic scale. The single-cell population was selected on a forward–side scattergram, and the green fluorescence from this population was analyzed. Parasitemia was expressed as the number of parasitized cells per 100 erythrocytes.\nas §1"}, "Vero cells": {"tested_on": "Vero cells", "assay": "Vero cell toxicity assay (alamarBlue)", "type": "cell-based, green monkey", "conditions": "4 days; minimum value of the 95% CI, except BNZ (mean (SD))", "method": "(§3) Human erythrocytes were purified from B+ Rh+ blood samples and maintained at 4 °C in incomplete RPMI medium. Vero (green monkey kidney epithelial cells), LLC-MK2 (Rhesus monkey kidney epithelial cells), and HepG2 (human liver epithelial cells) cultures were cultivated in DMEM supplemented with 1% penicillin–streptomycin (PS) and 10% heat-inactivated fetal bovine serum (FBS) at 37 °C, 5% CO2, and >95% humidity, as described in [31]. HepG2 cells were also supplemented with 10% non-essential amino acids. Vero and MK2 cells were passaged twice per week at 1:12 ratios, while HepG2 cells were passaged at a 1:8 ratio.\n(§4) Vero and HepG2 cells were detached, centrifuged, and resuspended in DMEM without phenol red. Cell viability was checked upon cell counting with trypan blue staining. Then, Vero and HepG2 cells were diluted at a concentration of 5 × 10^5 and 3.2 × 10^5 cells per mL, respectively, before adding 100 µL per well to the 96-well plate. Each run contained its own negative (untreated cells) and positive (medium alone) controls. Plates were incubated at 37 °C for 4 days in the case of Vero, or 2 in the case of HepG2 cells. Assay readout was made by adding 50 µL per well of a PBS solution containing 10% alamarBlue reagent (Thermo Fisher Scientific); then, plates were incubated for another 6 h at 37 °C, before recording the fluorescence intensity with a Tecan Infinite M Nano+ reader (excitation: 530 nm, emission: 590 nm).\nas §1"}, "P. falciparum 3D7 [3]": {"tested_on": "P. falciparum 3D7", "assay": "P. falciparum dose-response growth inhibition assay (FACS, SYTO 11)", "type": "cell-based", "conditions": "P. falciparum 3D7, 48 h; mean (SD)", "method": "as §2\nP. falciparum growth was primarily analyzed under 3 different concentrations ([…]) of the 81 compounds. Conditions were tested in triplicate for every concentration, and the test was repeated when the standard deviation was above 10% for any concentration. Z-values varied between 0.83 and 0.98 in the different plates analyzed. Selected compounds (12.3% potential hit rate) were further analyzed via standard growth inhibition assays, carried out as previously described in [54]. Briefly, parasitemia was adjusted to 1–1.3%, with >90% rings after sorbitol synchronization. Two hundred microliters of parasite culture were plated in 96-well microplates and incubated for 48 h at 37 °C in the presence of decreasing concentrations of the tested compounds, in triplicate. Parasitemia was determined by fluorescence-assisted cell sorting (FACS). Non-infected RBCs and samples containing parasitized RBCs (including controls with DMSO as carrier solvent) were diluted in PBS to a final concentration of ~1–10 × 10^6 cells/mL. The cell suspension was stained with SYTO 11 (0.5 mM stock in DMSO, Thermo Fisher Scientific, Waltham, MA, USA), to a final concentration of 0.5 μM. Samples were analyzed in a Becton Dickinson FACSCalibur. Sample excitation was carried out using a 488-nm, air-cooled argon-ion laser at a power of 15 mW, using forward and side scatter to gate the RBC population, and SYTO 11 green fluorescence (530 nm, FITC filter) was collected in a logarithmic scale. The single-cell population was selected on a forward–side scattergram, and the green fluorescence from this population was analyzed. Parasitemia was expressed as the number of parasitized cells per 100 erythrocytes.\nas §1"}, "[4]": {"tested_on": "T. cruzi Tulahuen strain expressing β-galactosidase", "assay": "anti-T. cruzi dose-response growth inhibition assay (Vero cells plus trypomastigotes, CPRG readout)", "type": "cell-based", "conditions": "Vero cells plus trypomastigotes, MOI 1, four days, mean (SD), read-out: T. cruzi IC50 a (anti-T. cruzi assay)", "method": "T. cruzi parasites from the Tulahuen strain (discrete typing unit (DTU) VI) expressing β-galactosidase were maintained in culture by the infection of LLC-MK2 cells in DMEM supplemented with 2% FBS and 1% penicillin–streptomycin–glutamine (PSG), as described in [52]. When free-swimming trypomastigotes were released to the culture medium, they were centrifuged for 7 min at 2500 rpm and allowed to swim out of the pellet. Trypomastigotes were used to maintain the parasite cycle, or for the performance of the antiparasitic assays.\nT. cruzi growth was primarily analyzed under three different concentrations ([…]) of the 81 compounds. Conditions were tested in triplicate for every concentration. Z-values varied between 0.81 and 0.92 in the different plates analyzed. Selected compounds (34.6% potential hit rate) were further analyzed via standard growth inhibition assays. The Z-values of dose–response assays correlated with those previously reported. For both assays, Vero cells and trypomastigotes from the Tulahuen T. cruzi strain expressing β-galactosidase were harvested, centrifuged, and resuspended in DMEM without phenol red supplemented with 1% PSG, 2% FBS, 1 mM sodium pyruvate, and 25 mM HEPES. Vero cells and trypomastigotes were counted, diluted at a concentration of 1 × 10^6 cells/mL each, and mixed 1:1 (v/v). Then, 100 μL of that mixture was added per well to the plates already containing the compounds. Each well contained 50,000 host cells and 50,000 parasites, i.e., multiplicity of infection (MOI) = 1. BNZ was used as control of maximal drug growth inhibition in each round, whereas each plate contained its own negative control (maximum parasite growth; Vero cells plus parasites without drugs) and positive control (minimum parasite growth; trypomastigote forms alone marking an enzymatic zero time or baseline galactosidase activity). After four days at 37 °C, 50 µL of a PBS solution containing 0.25% NP40 and 500 µM chlorophenol red-β-D-galactopyranoside (CPRG) substrate were added per well [32]. Plates were incubated at 37 °C for 4 h, and their absorbance read out at 590 nm using an Epoch Gene5 spectrophotometer.\nas §1"}, "HepG2 cells": {"tested_on": "HepG2 cells", "assay": "HepG2 cell toxicity assay (alamarBlue)", "type": "cell-based, human", "conditions": "2 days; minimum value of the 95% CI, except BNZ (mean (SD))", "method": "as §3, §4, §1"}}, "note": "“And” between values parts separate entries of the source, which are not always exact repeats. Identical values can stand only once. Like-named read-outs stand apart in the source and are kept apart here.", "data": [{"smiles": "COc1cccc(-n2cc(COc3ncnc4c3ncn4C(C)(C)C)nn2)c1", "note": "[Compound 88]", "values": [{"measurement": "IC50", "setting": "[1]", "value": 35.4, "unit": "µM"}, {"measurement": "Primary screening, parasite growth relative to the negative control", "setting": "P. falciparum 3D7 [2]; compound at 1 µM", "value": 92.13, "unit": "%"}, {"measurement": "Primary screening, parasite growth relative to the negative control", "setting": "P. falciparum 3D7 [2]; compound at 10 µM", "value": 81.69, "unit": "%"}, {"measurement": "Primary screening, parasite growth relative to the negative control", "setting": "P. falciparum 3D7 [2]; compound at 100 µM", "value": 21.43, "unit": "%"}, {"measurement": "Vero Cells TC50", "setting": "Vero cells", "value": ">180", "unit": "µM"}, {"measurement": "IC50", "setting": "P. falciparum 3D7 [3]", "value": 65.3, "unit": "µM"}, {"measurement": "IC50", "setting": "[4]", "value": 12.7, "unit": "µM"}]}, {"smiles": "O=C(Cn1ccnc1[N+](=O)[O-])NCc1ccccc1", "note": "[BNZ, benznidazole, reference compound]", "values": [{"measurement": "HepG2 Cells TC50", "setting": "HepG2 cells", "value": "255.3 (10.8) µM and 255.3 µM"}, {"measurement": "IC50", "setting": "[1]; Trypanosoma cruzi", "value": 1.82, "unit": "µM"}, {"measurement": "Vero Cells TC50", "setting": "Vero cells", "value": "209.5 (15.0) µM and 209.5 µM"}, {"measurement": "IC50", "setting": "[4]; Trypanosoma cruzi, TULAHUEN, 96 h", "value": 1.72, "unit": "µM"}]}, {"smiles": "C#CCOc1ncnc2c1ncn2N1CCN(C)CC1", "note": "[Compound 93]", "values": [{"measurement": "IC50", "setting": "[1]", "value": 218, "unit": "µM"}, {"measurement": "Primary screening, parasite growth relative to the negative control", "setting": "P. falciparum 3D7 [2]; compound at 1 µM", "value": 107.86, "unit": "%"}, {"measurement": "Primary screening, parasite growth relative to the negative control", "setting": "P. falciparum 3D7 [2]; compound at 10 µM", "value": 104.00, "unit": "%"}, {"measurement": "Primary screening, parasite growth relative to the negative control", "setting": "P. falciparum 3D7 [2]; compound at 100 µM", "value": 105.52, "unit": "%"}, {"measurement": "Vero Cells TC50", "setting": "Vero cells", "value": ">2000", "unit": "µM"}, {"measurement": "IC50", "setting": "[4]", "value": 1.42, "unit": "µM"}]}, {"smiles": "CN1CCN(n2cnc3c(OCc4ccccc4)ncnc32)CC1", "note": "[Compound 29]", "values": [{"measurement": "HepG2 Cells TC50", "setting": "HepG2 cells", "value": ">1000", "unit": "µM"}, {"measurement": "IC50", "setting": "[1]", "value": 157, "unit": "µM"}, {"measurement": "Primary screening, parasite growth relative to the negative control", "setting": "P. falciparum 3D7 [2]; compound at 1 µM", "value": 100.58, "unit": "%"}, {"measurement": "Primary screening, parasite growth relative to the negative control", "setting": "P. falciparum 3D7 [2]; compound at 10 µM", "value": 98.35, "unit": "%"}, {"measurement": "Primary screening, parasite growth relative to the negative control", "setting": "P. falciparum 3D7 [2]; compound at 100 µM", "value": 63.21, "unit": "%"}, {"measurement": "Vero Cells TC50", "setting": "Vero cells", "value": ">1000", "unit": "µM"}, {"measurement": "IC50", "setting": "[4]", "value": 4.86, "unit": "µM"}]}, {"smiles": "COc1cccc(-n2cc(COc3ncnc4c3ncn4N3CCN(C)CC3)nn2)c1", "note": "[Compound 94]", "values": [{"measurement": "IC50", "setting": "[1]", "value": 75.1, "unit": "µM"}, {"measurement": "Primary screening, parasite growth relative to the negative control", "setting": "P. falciparum 3D7 [2]; compound at 1 µM", "value": 128.84, "unit": "%"}, {"measurement": "Primary screening, parasite growth relative to the negative control", "setting": "P. falciparum 3D7 [2]; compound at 10 µM", "value": 125.18, "unit": "%"}, {"measurement": "Primary screening, parasite growth relative to the negative control", "setting": "P. falciparum 3D7 [2]; compound at 100 µM", "value": 104.00, "unit": "%"}, {"measurement": "Vero Cells TC50", "setting": "Vero cells", "value": ">60", "unit": "µM"}, {"measurement": "IC50", "setting": "[4]", "value": 0.92, "unit": "µM"}]}]}
